# Results as given in paper PMC3602277 (Bioorganic & medicinal chemistry, 2013).
# How the values were obtained:
# A431 cancer cells [1] = tested on: A431 cancer cells
# EGFR [2] = conditions: read-out: EGFR IC50; cited from earlier work
# A431 cancer cells [3] = test: A431 cytotoxicity, CYQUANT cell proliferation assay; conditions: ratio of IC50 vs cisplatin 23
# VEGFR-2 = VEGFR-2 (Homo sapiens, UniProt P35968); test: Phosphotyrosine ELISA cytoblot, VEGFR-2 kinase inhibition in whole cells; type: cell-based; conditions: for fold less active than standard 20 in VEGFR-2 inhibition assay: ratio of IC50 vs semaxanib 20
# Sequence of VEGFR-2 (P35968 20-1356): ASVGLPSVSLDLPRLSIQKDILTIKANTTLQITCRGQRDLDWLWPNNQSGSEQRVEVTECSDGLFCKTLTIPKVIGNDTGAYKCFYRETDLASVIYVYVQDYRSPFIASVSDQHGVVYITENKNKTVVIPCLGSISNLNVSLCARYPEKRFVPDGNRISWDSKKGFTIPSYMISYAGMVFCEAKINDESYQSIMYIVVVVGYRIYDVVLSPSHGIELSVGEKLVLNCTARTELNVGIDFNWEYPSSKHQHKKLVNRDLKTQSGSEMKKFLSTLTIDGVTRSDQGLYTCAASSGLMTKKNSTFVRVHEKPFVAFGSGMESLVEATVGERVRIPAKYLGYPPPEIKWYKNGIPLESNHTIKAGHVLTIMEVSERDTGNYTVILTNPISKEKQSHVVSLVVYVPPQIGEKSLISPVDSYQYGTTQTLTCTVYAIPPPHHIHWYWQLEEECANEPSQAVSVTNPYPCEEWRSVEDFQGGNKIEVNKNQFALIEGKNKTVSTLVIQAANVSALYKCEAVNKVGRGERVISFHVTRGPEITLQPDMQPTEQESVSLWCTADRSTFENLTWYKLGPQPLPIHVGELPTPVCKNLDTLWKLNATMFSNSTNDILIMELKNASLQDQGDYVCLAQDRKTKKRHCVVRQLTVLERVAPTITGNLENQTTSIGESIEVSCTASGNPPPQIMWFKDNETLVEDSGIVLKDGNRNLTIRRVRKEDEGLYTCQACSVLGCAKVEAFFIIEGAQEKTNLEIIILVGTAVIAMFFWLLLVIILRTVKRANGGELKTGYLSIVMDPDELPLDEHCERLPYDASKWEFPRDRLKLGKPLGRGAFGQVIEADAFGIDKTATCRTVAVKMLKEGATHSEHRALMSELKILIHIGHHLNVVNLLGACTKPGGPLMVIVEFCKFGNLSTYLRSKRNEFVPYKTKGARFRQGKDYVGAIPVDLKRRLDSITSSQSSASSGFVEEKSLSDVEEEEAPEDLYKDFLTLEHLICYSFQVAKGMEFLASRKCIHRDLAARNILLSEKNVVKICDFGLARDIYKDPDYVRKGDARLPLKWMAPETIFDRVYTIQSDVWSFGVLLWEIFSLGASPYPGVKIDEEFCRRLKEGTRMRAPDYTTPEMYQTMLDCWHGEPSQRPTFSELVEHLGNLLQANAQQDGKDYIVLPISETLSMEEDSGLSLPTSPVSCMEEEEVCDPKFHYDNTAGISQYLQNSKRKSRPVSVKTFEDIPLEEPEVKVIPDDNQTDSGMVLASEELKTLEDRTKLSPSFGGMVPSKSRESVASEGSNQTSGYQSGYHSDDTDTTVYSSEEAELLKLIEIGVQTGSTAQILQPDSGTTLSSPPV
# PDGFR-β = PDGFR-β (Homo sapiens, UniProt P09619); test: Phosphotyrosine ELISA cytoblot, PDGFR-β kinase inhibition in whole cells; type: cell-based
# Sequence of PDGFR-β (P09619 33-1106): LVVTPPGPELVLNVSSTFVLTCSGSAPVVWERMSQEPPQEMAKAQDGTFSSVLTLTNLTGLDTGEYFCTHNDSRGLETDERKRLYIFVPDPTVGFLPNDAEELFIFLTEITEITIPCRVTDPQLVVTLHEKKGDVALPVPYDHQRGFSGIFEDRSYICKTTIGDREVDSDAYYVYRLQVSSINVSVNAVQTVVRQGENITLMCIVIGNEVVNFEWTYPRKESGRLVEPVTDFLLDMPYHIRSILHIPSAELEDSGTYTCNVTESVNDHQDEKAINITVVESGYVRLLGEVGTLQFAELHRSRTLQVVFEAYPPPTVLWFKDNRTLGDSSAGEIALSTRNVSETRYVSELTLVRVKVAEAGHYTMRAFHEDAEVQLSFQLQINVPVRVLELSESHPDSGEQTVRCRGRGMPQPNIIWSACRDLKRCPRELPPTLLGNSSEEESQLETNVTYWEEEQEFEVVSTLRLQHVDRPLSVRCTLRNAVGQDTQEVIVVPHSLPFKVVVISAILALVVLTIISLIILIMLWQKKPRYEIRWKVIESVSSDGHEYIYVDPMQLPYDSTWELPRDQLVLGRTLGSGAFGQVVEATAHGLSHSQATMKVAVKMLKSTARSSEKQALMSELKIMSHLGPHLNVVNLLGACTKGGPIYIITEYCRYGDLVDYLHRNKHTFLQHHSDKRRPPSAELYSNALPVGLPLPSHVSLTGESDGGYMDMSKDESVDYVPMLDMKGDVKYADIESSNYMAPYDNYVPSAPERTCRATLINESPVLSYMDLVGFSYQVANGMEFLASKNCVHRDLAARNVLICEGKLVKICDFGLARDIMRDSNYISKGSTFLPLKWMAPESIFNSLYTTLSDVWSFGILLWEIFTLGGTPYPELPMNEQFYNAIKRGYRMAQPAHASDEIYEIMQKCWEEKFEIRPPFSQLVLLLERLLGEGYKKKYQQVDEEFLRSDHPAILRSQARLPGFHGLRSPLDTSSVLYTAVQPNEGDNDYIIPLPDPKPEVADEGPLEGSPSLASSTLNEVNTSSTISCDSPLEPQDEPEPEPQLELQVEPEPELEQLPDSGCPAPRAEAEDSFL
# EGFR [4] = molecular target: EGFR (Homo sapiens, UniProt P00533); test: Phosphotyrosine ELISA cytoblot, EGFR kinase inhibition in whole cells; type: cell-based
# Sequence of EGFR (Homo sapiens, UniProt P00533) (P00533 25-1210): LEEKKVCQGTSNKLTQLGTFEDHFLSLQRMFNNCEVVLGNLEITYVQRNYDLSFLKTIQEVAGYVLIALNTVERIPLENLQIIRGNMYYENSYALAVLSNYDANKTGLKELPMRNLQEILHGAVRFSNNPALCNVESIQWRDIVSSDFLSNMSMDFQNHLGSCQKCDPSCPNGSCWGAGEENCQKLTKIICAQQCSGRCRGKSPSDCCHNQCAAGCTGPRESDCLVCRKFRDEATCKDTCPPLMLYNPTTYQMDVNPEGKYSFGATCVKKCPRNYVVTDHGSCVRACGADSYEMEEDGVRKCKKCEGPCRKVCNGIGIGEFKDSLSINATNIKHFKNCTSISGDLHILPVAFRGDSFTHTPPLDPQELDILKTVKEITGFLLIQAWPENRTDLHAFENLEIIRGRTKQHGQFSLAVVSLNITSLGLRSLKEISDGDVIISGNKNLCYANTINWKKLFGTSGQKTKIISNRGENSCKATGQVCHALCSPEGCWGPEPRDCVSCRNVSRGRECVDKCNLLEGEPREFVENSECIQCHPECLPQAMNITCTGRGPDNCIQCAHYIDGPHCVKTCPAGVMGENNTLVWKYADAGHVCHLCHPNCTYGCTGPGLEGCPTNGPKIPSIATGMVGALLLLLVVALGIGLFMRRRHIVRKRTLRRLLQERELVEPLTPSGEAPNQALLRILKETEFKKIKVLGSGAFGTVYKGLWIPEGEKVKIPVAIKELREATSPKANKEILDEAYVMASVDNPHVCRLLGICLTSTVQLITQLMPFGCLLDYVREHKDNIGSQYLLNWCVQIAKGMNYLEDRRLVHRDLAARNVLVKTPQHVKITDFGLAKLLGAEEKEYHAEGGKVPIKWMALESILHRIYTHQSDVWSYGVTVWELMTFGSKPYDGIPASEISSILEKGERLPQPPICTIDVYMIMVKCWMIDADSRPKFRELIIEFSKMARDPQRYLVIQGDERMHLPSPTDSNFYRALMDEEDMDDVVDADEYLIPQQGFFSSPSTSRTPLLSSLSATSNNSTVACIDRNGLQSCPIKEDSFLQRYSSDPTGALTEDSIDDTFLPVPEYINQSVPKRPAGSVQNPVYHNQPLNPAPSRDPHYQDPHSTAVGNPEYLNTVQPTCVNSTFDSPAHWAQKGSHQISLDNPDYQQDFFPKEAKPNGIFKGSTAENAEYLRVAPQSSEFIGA
structure (smiles),measurement,setting,value
"[NH2][Pt]([NH2])([Cl])[Cl] [Cisplatin (23), cisplatin]",IC50,A431 cancer cells [1],10.6 ± 2.9 µM
Clc1cccc(Nc2ncnc3[nH]c4ccccc4c23)c1 [Compound 1],IC50,EGFR [2],0.006 µM
"Nc1nc(Nc2ccc(Cl)cc2)c2c(n1)[nH]c1cccc(Cl)c12 [Compound 5, 5-chloro-N^4-(4-chlorophenyl)-9H-pyrimido[4,5-b]indole-2,4-diamine]",fold less potent than standard 23 in A431 cytotoxicity assay,A431 cancer cells [3],4 fold
same,fold more potent than erlotinib in VEGFR-2 inhibition assay,VEGFR-2; ratio of IC50 vs erlotinib,9.4 fold
same,fold more potent than sunitinib in VEGFR-2 inhibition assay,VEGFR-2; ratio of IC50 vs sunitinib,1.4 fold
same,potency relative to standard 20 in VEGFR-2 inhibition assay,VEGFR-2; vs semaxanib 20,equipotent
"COc1cccc(Nc2nc(N)nc3[nH]c4cccc(Cl)c4c23)c1 [Compound 8, 5-chloro-N^4-(3-methoxyphenyl)-9H-pyrimido[4,5-b]indole-2,4-diamine]",fold less active than standard 22 in PDGFR-β inhibition assay,PDGFR-β; ratio of IC50 vs DMBI 22,about 13.5 fold
same,fold less active than erlotinib in PDGFR-β inhibition assay,PDGFR-β; ratio of IC50 vs erlotinib,4 fold
same,"fold less active than corresponding 2-amino pivaloyl compound, VEGFR-2","VEGFR-2; 7 vs 13, 8 vs 14",~1.7 fold
same,fold less active than standard 20 in VEGFR-2 inhibition assay,VEGFR-2,7 fold
"CC(C)c1ccc(Nc2nc(NC(=O)C(C)(C)C)nc3[nH]c4cccc(Cl)c4c23)cc1 [Compound 10, N-{5-chloro-4-[(4-isopropylphenyl)amino]-9H-pyrimido[4,5-b]indol-2-yl}-2,2-dimethylpropanamide]",fold less active than standard 20 in VEGFR-2 inhibition assay,VEGFR-2,~4 fold
"CC(C)(C)C(=O)Nc1nc(Nc2ccc(Cl)cc2)c2c(n1)[nH]c1cccc(Cl)c12 [Compound 11, N-{5-chloro-4-[(4-chlorophenyl)amino]-9H-pyrimido[4,5-b]indol-2-yl}-2,2-dimethylpropanamide]",fold less potent than standard 23 in A431 cytotoxicity assay,A431 cancer cells [3],5 fold
same,fold less active than standard 20 in VEGFR-2 inhibition assay,VEGFR-2,2 fold
"CC(C)(C)C(=O)Nc1nc(Nc2cccc(F)c2)c2c(n1)[nH]c1cccc(Cl)c12 [Compound 13, N-{5-chloro-4-[(3-fluorophenyl)amino]-9H-pyrimido[4,5-b]indol-2-yl}-2,2-dimethylpropanamide]",fold less potent than standard 21 in EGFR inhibition assay,EGFR [4]; ratio of IC50 vs PD153035 21,150 fold
same,fold less active than erlotinib in EGFR inhibition assay,EGFR [4]; ratio of IC50 vs erlotinib,25 fold
same,fold less active than standard 20 in VEGFR-2 inhibition assay,VEGFR-2,about 2.5 fold
"COc1cccc(Nc2nc(NC(=O)C(C)(C)C)nc3[nH]c4cccc(Cl)c4c23)c1 [Compound 14, N-{5-chloro-4-[(3-methoxyphenyl)amino]-9H-pyrimido[4,5-b]indol-2-yl}-2,2-dimethylpropanamide]",fold less active than standard 20 in VEGFR-2 inhibition assay,VEGFR-2,~3.5 fold
